Experimental data published in patent US8012717B2, “Method for the production of cladribine” (Explora Laboratories S.A., priority 2006, dated 2011).

Type: physicochemical
Protocol: 0.42 g (equal to 2.5 mMoles) of 2-chloroadenine were suspended in 50 ml of DMF and heated while being stirred. Aliquots of DMF were added until a complete hot solubilisation was obtained. 100 ml of solvent were necessary to obtain the solubilisation of the 2-chloroadenine.
A solubilisation test was also carried out of 2-chloroadenine in 25% KOH in order to increase the solubilisation. 4.05 grams of 2-chloroadenine were resuspended in KOH being stirred. Aliquots of (25% w:v) KOH were added until complete solubilisation was obtained. Even after the addition of 100 ml of 25% KOH, the 2-chloroadenine remained practically undissolved.

Structure (SMILES): Nc1nc(Cl)nc2nc[nH]c12 [2-chloroadenine]
- solubility in 25% KOH: practically insoluble
- volume of solvent necessary to obtain the solubilisation: 100 mL
